Legend:
[1] = system: MHC class II expression in B220 positive B cells of mouse spleen cells; experiment: In vitro MHC class II expression inhibitory effect using mouse spleen cells (LPS-stimulated B cells, flow cytometry); format: cell-based, C57BL/6 mice; settings: B-cell, C57BL/6 spleen cells, LPS 2 μg/mL, 48 hours, B220 positive B cells, read-out: IC50 value of MHC class II expression inhibition (Data 2)
Description: Test Example 2 Evaluation of In Vitro MHC Class II Expression Inhibitory Effect Using Mouse Spleen Cells (Cell Evaluation System)
In antigen-presenting cells, the inhibition of cathepsin S inhibits the expression of MHC class II molecules. […] For an increased expression of MI-IC class II in B cells, the inhibitory effect of the compound represented by formula (I) was examined.
First, spleen cells collected from C57BL/6 mice were seeded in a 96-well plate so as to be a 1×10^5 cells/well, then, 5-fold dilution of 10 mM DMSO solution of the test compound was serially performed with RPMI 1640 medium (including 10% fetal bovine serum (FCS), 5×10^−5 M 2-mercaptoethanol, 50 IU/mL penicillin and 50 μg/mL streptomycin) nine times such that the final concentration becomes 0.026 nM to 10 μM, and the resultant products were added thereto (the final DMSO concentration was 0.1%). At the same time, LPS (Sigma L4005) was added to the wells such that the final concentration becomes 2 μg/mL, and culture was performed at 37° C. for 48 hours in 5% CO2. After culturing, the cells were stained at 4° C. for 20 minutes with PE-labeled streptavidin (BD BIOSCIENCE 554061) and biotin-labeled YAe antibody (EBIOSCIENCE 13-5741-85) together with FITC-labeled anti-mouse B220 antibody (BD BIOSCIENCE 553088), and an expression level (fluorescence intensity of YAe-biotin/streptavidin-PE) of MHC class II to which Ea peptide in B220 positive B cells was bonded was measured using a flow cytometry system (Guava EasyCyte Plus System, manufactured by Millipore Corporation). A value at the time of unstimulation of LPS in which the test compound was not added and a value at the time of stimulation of LPS in which the test compound was not added were set to 100% inhibition and 0% inhibition, respectively, then, an inhibition rate at each concentration was determined, and IC50 values were calculated by a linear regression method. In the Table, Ex represents Example compound No., and Data 2 represents an IC50 value (nM).

[2] = system: MHC class II expression in peripheral blood B cells; experiment: Ex vivo MHC class II expression inhibitory effect using mouse peripheral blood after oral administration; format: in vivo, C57BL/6 mice; settings: oral 1 mg/kg, blood collected after 3 hours, LPS 15 hours
Description: Test Example 3 Evaluation of Ex Vivo MHC Class II Expression Inhibitory Effect Using Mouse Peripheral Blood
The expression inhibitory effect of MHC class II molecules was evaluated in an ex vivo system.
The test compound was orally administered into C57BL/6mice, and the inhibitory effect with respect to the increased expression of MHC class II in B cells in peripheral blood after oral administration was examined. That is, 10 mL/kg of the test compound dissolved in a vehicle (30% propylene glycol solvent (propylene glycol:cured castor oil (HCO40):Tween 80=4:2:1)/HCl (2 equivalents with respect to the test compound)/water) was orally administered (dose: 0.1 mg/kg, 0.3 mg/kg, 1 mg/kg, or 3 mg/kg) to a C57BL/6mice, and the peripheral blood was collected after 3 hours. 10 μL of RPMI 1640 medium (including 5×10^−5 M of 2-mercaptoethanol, 50 IU/mL of penicillin, and 50 μg/mL of streptomycin) or 10 μL of LPS adjusted with the medium such that the final concentration becomes 100 μg/mL was added to 90 μL of the peripheral blood, and culture was performed at 37° C. for 15 hours in 5% CO2. After culturing, the cells were stained at 4° C. for 30 minutes with FITC-labeled anti-mouse I-A/I-E antibody (BD BIOSCIENCE 553623) and PE-labeled B220 antibody (BD BIOSCIENCE 553090), and hemolysis and fixation were performed at 37° C. for 10 minutes using a buffer (BD BIOSCIENCE Phosflow Lyse/Fix Buffer 558049). After washing, using a flow cytometry system (FACSCanto II, manufactured by BD BIOSCIENCE), an expression level of MHC class II on a B220 positive B cell surface was measured by using a fluorescence intensity of FITC (hereinafter, referred to as MFI) as an indicator. The difference between a MFI at the time of stimulation of LPS and a MFI at the time of unstimulation of LPS was set to a ΔMFI, a ΔMFI of a mouse in which 10 mL/kg of only vehicle was administered was set to 1, and the inhibition rate of ΔMFI by the test compound administration was calculated.

[3] = system: OVA specific IgG antibody titer; experiment: Antibody production inhibitory effect in mouse OVA-induced antibody production model; format: in vivo, BALB/c male mice; settings: oral 0.3 mg/kg daily Day 0 to Day 14, titer at Day 14
Description: Test Example 4 Evaluation of Antibody Production Inhibitory Effect in Mouse OVA-Induced Antibody Production Model
Evaluation of an antibody production inhibitory effect in vivo was performed.
The BALB/c male mice were sensitized by intraperitoneal administration of 200 μL of an emulsion consisting of 100 μg of ovalbumin (OVA) (SIGMA A5503) and 100 μL of a complete Freund's adjuvant (CFA) (DIFCO 231131) (Day 0), and a week after that, the mice were sensitized by intraperitoneal administration of 200 μL of an emulsion consisting of 50 μg of OVA and 100 μL of an incomplete Freund's adjuvant (IFA) (DIFCO 263910) (Day 7). The test compound dissolved in a vehicle (30% propylene glycol solvent (propylene glycol:HCO40:Tween 80=4:2:1)/HCl (2 equivalents with respect to the test compound)/water) was orally administered (dose: 0.3 mg/kg, 1 mg/kg, or 3 mg/kg) at 10 mL/kg/day from Day 0 to Day 14, and an OVA specific IgG antibody titer in blood plasma at Day 14 was evaluated. Measurement of antibody titer was carried out using a blood plasma sample which was diluted 40,000 times by an ELISA method, and the antibody titer was represented as a ratio with respect to control blood plasma. An antibody titer of a mouse to which the vehicle was orally administered at 10 mL/kg/day from Day 0 to Day 14 was set to 0% inhibition, an antibody titer of a normal mouse to which the vehicle was orally administered at 10 mL/kg/day from Day 0 to Day 14 and which was not sensitized with OVA was set to 100% inhibition, and the inhibition rate at the time of the test compound administration was calculated.

SLE spontaneous model = experiment: SLE onset inhibitory effect in spontaneous model using NZB/W F1 mouse; format: in vivo, NZB/W F1 female mice; settings: oral 0.3 mg/kg once a day from 20 weeks old, at 41 weeks old
Description: NZB/W F1 mice are used as a model of SLE that spontaneously develops a condition close to humans ([…] et al, Proceedings of the university otago medical school (New Zealand), 1961, Vol. 39, p. 3; Advances in Immunology, 1985, Vol. 37, p. 269-390; Perry et al, Journal of Biomedicine and Biotechnology, 2011, Article ID 271694, Review Article). […] At this time, an individual having greater than 100 mg/dL of urine protein was excluded. […] Furthermore, a pathology evaluation of kidney tissue in the above Test 5 was performed. […] In accordance with histological classification of lupus nephritis by WHO, a histopathological image was classified into Class I (normal glomerulus), Class II (mesangium lesion), Class III (focal segmental glomerulonephritis), Class IV (diffuse glomerulonephritis), and Class VI (progressive sclerosing lupus nephritis).

Q: How did the IC50 [1] turn out when `CCN1CCC(CCOc2ncc(-c3nc(C#N)nc4c3ncn4C)cc2C(F)(F)F)CC1` [Example 39, 6-{6-[2-(1-ethylpiperidin-4-yl)ethoxy]-5-(trifluoromethyl)pyridin-3-yl}-9-methyl-9H-purine-2-carbonitrile] was run?
A: 0.61 nM

Q: What about the “inhibition rate of ΔMFI (increased expression of MHC class II in peripheral blood B cells)” value [2] of the same molecule?
A: 61±1.2%

Q: And the “inhibition of OVA specific IgG antibody titer in blood plasma” value [3]?
A: 74±8%

Q: What about the “average anti-dsDNA IgG antibody titer” value (SLE spontaneous model; 10 cases, ELISA) of the same molecule?
A: 9,263±1,700 mU/mL

Q: What about the urine protein (SLE spontaneous model; all individuals of 10 cases) of the same molecule?
A: ≤ 100 mg/dL

From patent US9328118B2, “Nitrogen-containing bicyclic aromatic heterocyclic compound” (ASTELLAS PHARMA INC., priority 2012, dated 2016)
